Values joined by “and” are separate entries in the source; they are usually repeats but may differ in a detail not shown here. Identical values can stand only once. Residues, ends and D or L forms follow the SMILES beside them.
How the values were obtained:
[1] = system: platelets; test: Direct platelet adhesion assay; assay type: cell-based; settings: for Adherence as % Control: wells treated with 50 μl of 40 μg/ml peptide or protein, platelets incubated 30 minutes, BCA protein assay; for adherence to platelets (in words): at this concentration (40 μg/ml coating solution)
Procedure: (§1) The number of adherent platelets was essentially determined as previously described (Tuszynski et al., Anal. Bio. supra). Briefly, 100 μl of 5×10^8 platelets/ml washed as previously described (Tuszynski, et al., Blood 72, 109-225, 1988) were added to microtiter plates, the wells of which were treated with 50 μl of a 40 μg/ml peptide or protein solution (Hepes buffered saline, pH 7.4). Solutions were dried at room temperature after incubation in a fume hood for two hours. Wells were blocked for one hour with 1% BSA. Platelets (100 μl) were incubated in the wells for 30 minutes and non-adherent platelets were removed by aspiration. Wells were washed 3× with 200 μl of Hepes buffered saline, pH 7.4. The number of adherent platelets was determined by measuring the platelet-derived protein using the BCA protein assay.

[2] = system: melanoma cells (adhesion to absorbed intact thrombospondin); test: Competitive assay to measure thrombospondin specific adhesion to melanoma cells; assay type: cell-based, mouse; settings: for competition with thrombospondin for adhesion to melanoma cells (in words): at this concentration (100 μg/ml)
Procedure: (§2) It is believed that thrombospondin acts in metastasis through its adhesive properties. An assay was developed, generally in accordance with the disclosure of Tuszynski et al. (Anal. Bio. (1990) 184:189-91) which evaluates the ability of melanoma cells to adhere to the thrombospondin fragments or analogs of the invention. In this assay, wells of a 96-well microtiter dish (Costar, Cambridge, Mass.) were incubated for two to three hours with 50 μl of a 40 μg/ml solution of various ligands in 20 mM NaCl, pH 7.3. Thrombospondin (purified by the method of Tuszynski et al., J. Biol. Chem. (1985) 260:12240-5), fibronectin (Sigma Chemical Co., Missouri) served as the positive control. Bovine serum albumin (BSA) (Sigma Chemical Co.) served as the negative control. Thrombospondin analogs of the invention p1, p5 and p6 were synthesized as described in Examples 1 through 3. Following peptide adhesion to the microtiter dish, the wells were aspirated, treated with 200 μl phosphate buffered saline (PBS) containing 1% BSA for 1 hour and then washed three more times with 200 μl PBS.
(§3) Mouse B16 F10 melanoma cells were grown and harvested during log phase of growth using standard procedures. The harvested cells were washed two times in serum-free Dulbecco's minimum essential medium (DMEM) (Flow Laboratories) and suspended in DMEM at a final concentration of 4×10^5 cells/ml. Of the cell suspension 100 μl was added to each well of the microtiter dish containing the various ligands and the dish incubated at 37° C. in a CO2 incubator for 1 hour. Nonadherent cells were removed by aspiration and the wells washed three times with 200 μl of PBS. The total cell-associated protein was determined by dissolving the attached cells directly in the microtiter wells with 200 μl of the Pierce BCA working solution (Pierce Chem. Co. Booklet No. 23225 (1987)). The plate was covered with an adhesive mylar sheet (Flow Labs) and incubated at 60° C. for 30 minutes. Plates were allowed to cool to room temperature, cover sheets were removed, and the absorbance of each well was determined at 562 nm with a microtiter plate reader (Biotek, Burlington, Vt.)
The direct adhesion assay of Example 5 was modified to measure the ability of the peptide compounds of the invention to compete with intact thrombospondin for adhesion to melanoma cells.
In this assay, intact thrombospondin is absorbed onto microtiter dishes as described in Example 5. […]

[3] = system: platelets (adhesion to absorbed fibronectin (FN)); test: Competitive assay, platelet adhesion to absorbed fibronectin (FN); assay type: cell-based; settings: for % Buffer Control (platelet adhesion): absorbed protein FN, platelets preincubated with 250 μg/ml compound
Procedure: as §1
(§4) The direct adhesion assay of Example 7 was modified to measure the ability of the peptide compounds of the invention to compete with intact thrombospindin or fibronectin for adhesion of platelets.
(§5) In this assay, thrombospondin (TSP) or fibronectin (FN) was absorbed onto microtiter dish as described in Example 7. The assay was similar to Example 7 except that before platelets were added to the microtiter dishes they were preincubated with 250 μg/ml of various ligands.

[4] = system: platelets (adhesion to absorbed thrombospondin (TSP)); test: Competitive assay, platelet adhesion to absorbed thrombospondin (TSP); assay type: cell-based; settings: for % Buffer Control (platelet adhesion): absorbed protein TSP, platelets preincubated with 250 μg/ml compound
Procedure: as §1, §4, §5

[5] = system: Mouse B16 F10 melanoma cells; test: Direct adhesion assay: melanoma cells adhering to ligand-coated wells; assay type: cell-based; settings: for Adhesion as % Thrombospondin: absorbed compound 2 μg per well, B16 F10 melanoma cells, 1 hour at 37° C., cell protein by BCA, absorbance 562 nm; for adhesive properties (in words): melanoma cell adhesion to coated peptide
Procedure: as §2, §3

[6] = system: B16 F10 mouse melanoma cells; test: Antimetastatic activity in vivo, lung tumors after i.v. melanoma cells; design: species or system C57 black mice; settings: for % buffer control (number of lung tumors): i.v. with 5×10^5 B16 F10 cells, lung tumors counted after 16 days; for number of tumors versus controls (in words) / size of lung tumors (in words): treated C57 black mice, 16 days
Description: Briefly, C57 black mice were intravenously injected with 5×10^5 B16 F10 mouse melanoma cells in the presence of either control buffer (Hepes buffered saline, pH 7.4), or the indicated amount of peptide compound of the invention p1, p5 or p6. After 16 days, the mice were sacrificed and the number of lung tumors counted.

[7] = system: platelets in platelet-rich-plasma (PRP); test: Platelet aggregation assay in platelet-rich plasma, ADP-initiated; assay type: cell-based; settings: 0.5 ml PRP, aggregation initiated with 1 μM ADP
Procedure: Platelet aggregation was monitored on a single-channel aggregometer equipped to measure luminescence (Chromo-Log, Havertown, Pa.). Platelet-rich-plasma (PRP) was obtained from whole blood anti-coagulated with 0.38% Sodium Citrate by centrifugation at 150×g for 20 minutes. Peptides were added to 0.5 ml of PRP and aggregation initiated with 1 μM ADP. Buffer blanks contained diluent (water) but no peptide.

[8] = cells preincubated 15 minutes with 100 μg/ml compound
[9] = cells preincubated with 10 μg/ml compound
[10] = cells preincubated with 50 μg/ml compound
[11] = cells preincubated with 200 μg/ml compound
[12] = cells preincubated with 300 μg/ml compound

Row | Compound | Adherence as % Control [1] [%] | competition with thrombospondin for adhesion to melanoma cells (in words) [2] | % of buffer control (melanoma cell adhesion to thrombospondin) [2, 8] | % of buffer control (melanoma cell adhesion to thrombospondin) [2, 9] [%] | % of buffer control (melanoma cell adhesion to thrombospondin) [2, 10] [%] | % of buffer control (melanoma cell adhesion to thrombospondin) [2, 11] [%] | % of buffer control (melanoma cell adhesion to thrombospondin) [2, 12] [%] | % Buffer Control (platelet adhesion) [3] [%] | % Buffer Control (platelet adhesion) [4] [%] | Adhesion as % Thrombospondin [5] [%] | adhesive properties (in words) [5] | % buffer control (number of lung tumors) ([6]; 30 μg/mouse) [%] | number of tumors versus controls (in words) [6] | inhibition of platelet aggregation (in words, FIG. 1) [7] | adherence to platelets (in words) [1] | competition with fibronectin for platelet adhesion (in words) ([3]; 250 μg/ml) | competition with thrombospondin for platelet adhesion (in words) ([4]; 250 μg/ml) | size of lung tumors (in words) [6] | % buffer control (number of lung tumors) ([6]; 100 μg/mouse) [%] | % buffer control (number of lung tumors) ([6]; 300 μg/mouse) [%]
1 | fWSPCSVTCGNH2 [Compound p5] | 2.1 | compete to a lesser degree | 62% and 108% and 83% | 99 | 104 | 89 | 83 | 109 | 107 | 79 | display adhesive properties | 87 | statistically fewer tumors than controls | inhibit platelet aggregation | – | – | – | – | – | –
2 | fibronectin | 83 | – | – | – | – | – | – | – | – | – | – | – | – | – | – | – | – | – | – | –
3 | CC(C)[C@H](NC(=O)[C@H](CO)NC(=O)[C@H](CS)NC(=O)[C@@H]1CCCN1C(=O)[C@H](CO)NC(=O)[C@@H](N)Cc1c[nH]c2ccccc12)C(=O)N[C@H](C(=O)N[C@@H](CS)C(=O)NCC(=O)O)[C@@H](C)O [Compound p1, WSPCSVTCG] (H-WSPCSVTCG-OH) | – | able to effectively compete with thrombospondin | – | 49 | 40 | – | – | 108 | 71 | 98 | display adhesive properties | 49 | statistically fewer tumors than controls | inhibit platelet aggregation | adhere to platelets | did not compete with fibronectin | effectively competed with thrombospondin | smaller in size | – | –
4 | WSPCSVTCGNH2 [Compound p6] | 38 | compete to a lesser degree | 89% | – | – | 74 | 74 | 96 | 98 | 70 | display adhesive properties | 91 | statistically fewer tumors than controls | inhibit platelet aggregation | adhere to platelets | – | – | smaller in size | 102 | 50
5 | Thrombospondin: large molecular weight 180 kD glycoprotein of three identical disulfide-linked polypeptide chains; purified intact protein, positive control | 100 | – | – | – | – | – | – | – | – | 100 | – | – | – | – | – | – | – | – | – | –
